These results are taken from ChEMBL document CHEMBL5500348, “Novel 6-alkyl-bridged 4-arylalkylpiperazin-1-yl derivatives of azepino[4,3-b]indol-1(2H)-one as potent BChE-selective inhibitors showing protective effects against neurodegenerative insults” (Eur J Med Chem, 2024).

Molecules are shown by their SMILES. ≈ marks a conversion by molar mass, not a printed value. Calls of active or inactive are those of the source. No cut-off for these calls is given here. Some results are limits rather than exact numbers.

One data set addresses Acetylcholinesterase (Electrophorus electricus, UniProt O42275). Nature of the data set: Inhibition of electric eel AChE using acetylthiocholine iodide as substrate preincubated for 20 mins followed by substrate addition and measured after 10 mins by DTNB-reagent based Ellman's method. (In general: Ellman's reagent forms a yellow product with free thiols.)
Data set [1] has as its target T1, Cholinesterase (Equus caballus, UniProt P81908). The experiment in a line: Inhibition of equine serum BuChE using butyrylthiocholine iodide as substrate preincubated for 20 mins followed by substrate addition and measured after 10 mins by DTNB based Ellman's method.
The target in data set [2] is Amyloid-beta precursor protein (Homo sapiens) (UniProt P05067). The experiment in a line: Inhibition of self induced amyloid-beta (1 to 40) (unknown origin) aggregation at 100 uM incubated for 2 hrs by ThT fluorescence based spectrofluorimetric analysis relative to control.
Data set [3] deals with T2, Cholinesterase (Homo sapiens, UniProt P06276). Nature of the data set: Inhibition of human BuChE using butyrylthiocholine iodide as substrate preincubated for 20 mins followed by substrate addition and measured after 10 mins by DTNB based Ellman's method.
Data set [4] addresses Acetylcholinesterase (Homo sapiens) (UniProt P22303). Nature of the data set: Inhibition of human AChE using acetylthiocholine iodide as substrate at 20 uM preincubated for 20 mins followed by substrate addition and measured after 10 mins by DTNB-reagent based Ellman's method relative to control. The conditions noted are these: time 30.0 min.
Data set [5] concerns the target Cholinesterase (Equus caballus) (UniProt P81908). Nature of the data set: Mixed-type inhibition of equine serum BChE using varying concentrations of butyrylthiocholine iodide as substrate assessed as change in Km and Vmax at 0.05 to 0.5 uM by Lineweaver-Burk plot analysis. Particulars: dose 0.05-0.5 µM.
Data set [6] concerns the target T1, Cholinesterase. Nature of the data set: Mixed-type inhibition of equine serum BChE using varying concentrations of butyrylthiocholine iodide as substrate assessed as inhibition constant by Lineweaver-Burk plot analysis.
A short description of data set [7]: Cytotoxicity against human SH-SY5Y cells assessed as reduction in cell viability incubated for 24 hrs by MTT assay. It counts as toxicity, cell-based.
The test system of data set [8] is SH-SY5Y. Nature of the data set: Protection against NMDA-induced cytotoxicity in human SH-SY5Y cells assessed as increase in cell viability at 1 uM incubated for 24 hrs by MTT assay. It counts as functional, cell-based.
Data set [9] deals with SH-SY5Y. Nature of the data set: Protection against NMDA-induced cytotoxicity in human SH-SY5Y cells assessed as increase in cell viability at 5 to 20 uM incubated for 24 hrs by MTT assay. The conditions noted are these: dose 5-20 µM. It counts as functional, cell-based. For orientation: Tetrazolium dyes change colour on reduction, which living cells bring about.
A further data set has as its system equine serum BuChE. Nature of the data set: Selectivity ratio of IC50 for cytotoxicity against human SH-SY5Y cells to IC50 for inhibition of equine serum BuChE using butyrylthiocholine iodide as substrate. Particulars: probe butyrylthiocholine iodide, read-out: Ratio IC50. The class given is toxicity, cell-based.
For data set [10], the system named is SH-SY5Y. The experiment in a line: Cytoprotective activity against H2O2-induced oxidative stress in human SH-SY5Y cells assessed as increase in cell viability at 20 uM incubated for 24 hrs by MTT assay. The class given is functional, cell-based.
Data set [11] can be described thus: Antioxidant activity assessed as ROS scavenging activity relative to control. It counts as functional.
In another data set the target is Albumin (Homo sapiens, UniProt P02768). Nature of the data set: Binding affinity to human serum albumin assessed as equilibrium dissociation constant by SPR analysis. It counts as ADME. (SPR reads the build-up and loss of mass on a sensor chip optically.)
Data set [12] addresses T3, serum albumin (Homo sapiens, UniProt P02768). The experiment in a line: Binding affinity to human serum albumin assessed as dissociation rate constant (Koff) by SPR analysis. It counts as ADME. The conditions noted are these: read-out: K.
For data set [13], the target named is T3, serum albumin. The experiment in a line: Binding affinity to human serum albumin assessed as residence time by SPR analysis. The class given is ADME.
The nature of data set [14]: Aqueous solubility of compound in phosphate buffered solution at pH 7.4 incubated for 1 hr under shaking condition by HPLC analysis. It counts as physicochemical.
Data set [15] concerns the target T1, Cholinesterase.
Description: Binding affinity to equine BChE in phosphate buffer at pH 8 assessed as equilibrium dissociation constant by SPR analysis
The target of data set [16] is Acetylcholinesterase (Electrophorus electricus) (UniProt O42275). Nature of the data set: Inhibition of electric eel AChE using acetylthiocholine iodide as substrate at 20 uM preincubated for 20 mins followed by substrate addition and measured after 10 mins by DTNB-reagent based Ellman's method relative to control. Particulars: time 30.0 min.
The test system of data set [17] is SH-SY5Y. The experiment in a line: Cytoprotective activity against H2O2-induced oxidative stress in human SH-SY5Y cells assessed as increase in cell viability incubated for 24 hrs by MTT assay. The class given is functional, cell-based.
Data set [18] has as its target Amyloid-beta precursor protein (Homo sapiens) (UniProt P05067). The experiment in a line: Inhibition of amyloid beta (unknown origin) aggregation at 100 uM relative to control.
The target of data set [19] is Acetylcholinesterase (Homo sapiens) (UniProt P22303). The experiment in a line: Inhibition of AChE (unknown origin) at 10 uM relative to control.
The target of data set [20] is T2, Cholinesterase. Nature of the data set: Inhibition of BChE (unknown origin) at 10 uM relative to control.
Data set [21] has as its target Cholinesterase (Equus caballus) (UniProt P81908). The experiment in a line: Inhibition of equine serum BuChE using butyrylthiocholine iodide as substrate at 20 uM preincubated for 20 mins followed by substrate addition and measured after 10 mins by DTNB based Ellman's method relative to control. The conditions noted are these: time 30.0 min.
Data set [22] deals with SH-SY5Y. Nature of the data set: Cytoprotective activity against H2O2-induced oxidative stress in human SH-SY5Y cells assessed as increase in cell viability at 100 uM incubated for 24 hrs by MTT assay. The class given is functional, cell-based.

Chain of Acetylcholinesterase (O42275 whole entry): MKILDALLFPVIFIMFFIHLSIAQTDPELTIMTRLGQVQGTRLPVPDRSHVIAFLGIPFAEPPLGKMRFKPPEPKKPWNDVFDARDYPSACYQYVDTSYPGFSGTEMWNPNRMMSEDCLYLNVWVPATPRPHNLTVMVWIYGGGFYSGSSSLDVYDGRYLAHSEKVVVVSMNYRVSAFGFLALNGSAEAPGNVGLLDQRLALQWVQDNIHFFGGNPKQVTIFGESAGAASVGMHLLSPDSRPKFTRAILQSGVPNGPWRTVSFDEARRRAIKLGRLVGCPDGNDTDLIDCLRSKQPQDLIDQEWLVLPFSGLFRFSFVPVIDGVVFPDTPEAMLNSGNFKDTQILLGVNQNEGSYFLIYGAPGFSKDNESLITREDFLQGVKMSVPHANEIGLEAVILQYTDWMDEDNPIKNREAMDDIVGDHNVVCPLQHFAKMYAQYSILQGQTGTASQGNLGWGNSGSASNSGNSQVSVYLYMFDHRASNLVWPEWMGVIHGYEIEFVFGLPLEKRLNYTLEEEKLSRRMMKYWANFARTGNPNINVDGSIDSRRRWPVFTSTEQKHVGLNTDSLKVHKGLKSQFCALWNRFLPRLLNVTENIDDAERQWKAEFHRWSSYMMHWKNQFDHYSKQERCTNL
T2 sequence (P06276 whole entry): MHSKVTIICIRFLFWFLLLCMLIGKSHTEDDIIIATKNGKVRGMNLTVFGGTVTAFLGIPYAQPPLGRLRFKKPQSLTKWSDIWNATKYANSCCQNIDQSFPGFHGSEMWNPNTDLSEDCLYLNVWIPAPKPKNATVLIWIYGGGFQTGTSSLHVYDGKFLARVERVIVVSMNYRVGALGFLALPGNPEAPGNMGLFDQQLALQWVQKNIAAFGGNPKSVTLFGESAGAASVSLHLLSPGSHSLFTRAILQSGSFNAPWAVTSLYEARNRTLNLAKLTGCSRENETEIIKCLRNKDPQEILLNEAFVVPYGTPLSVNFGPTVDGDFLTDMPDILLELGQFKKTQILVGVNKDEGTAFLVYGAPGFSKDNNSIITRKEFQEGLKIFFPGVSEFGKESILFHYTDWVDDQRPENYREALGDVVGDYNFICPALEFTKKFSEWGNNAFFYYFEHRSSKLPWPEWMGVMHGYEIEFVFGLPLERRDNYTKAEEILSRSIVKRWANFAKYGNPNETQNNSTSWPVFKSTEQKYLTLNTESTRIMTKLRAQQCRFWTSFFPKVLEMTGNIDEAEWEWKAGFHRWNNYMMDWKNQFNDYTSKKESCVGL
Chain of Acetylcholinesterase (Electrophorus electricus) (O42275 24-633 limits assumed): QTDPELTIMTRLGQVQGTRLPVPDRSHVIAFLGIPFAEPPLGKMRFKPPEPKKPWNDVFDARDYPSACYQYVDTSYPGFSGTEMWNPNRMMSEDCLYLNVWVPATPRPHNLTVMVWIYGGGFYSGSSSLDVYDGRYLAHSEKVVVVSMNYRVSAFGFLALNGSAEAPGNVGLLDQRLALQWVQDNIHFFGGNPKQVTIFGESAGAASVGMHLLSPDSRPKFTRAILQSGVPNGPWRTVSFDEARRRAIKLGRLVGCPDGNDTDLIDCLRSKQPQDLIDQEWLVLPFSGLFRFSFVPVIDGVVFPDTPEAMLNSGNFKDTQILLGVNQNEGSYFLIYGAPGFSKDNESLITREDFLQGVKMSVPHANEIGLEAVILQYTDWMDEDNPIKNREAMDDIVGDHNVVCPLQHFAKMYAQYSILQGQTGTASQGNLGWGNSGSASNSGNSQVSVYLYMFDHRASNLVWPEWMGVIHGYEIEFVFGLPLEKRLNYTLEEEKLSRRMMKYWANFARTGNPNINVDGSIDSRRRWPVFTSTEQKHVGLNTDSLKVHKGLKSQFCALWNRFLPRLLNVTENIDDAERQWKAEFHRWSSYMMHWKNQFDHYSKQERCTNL
Chain of Acetylcholinesterase (Homo sapiens) (P22303 whole entry): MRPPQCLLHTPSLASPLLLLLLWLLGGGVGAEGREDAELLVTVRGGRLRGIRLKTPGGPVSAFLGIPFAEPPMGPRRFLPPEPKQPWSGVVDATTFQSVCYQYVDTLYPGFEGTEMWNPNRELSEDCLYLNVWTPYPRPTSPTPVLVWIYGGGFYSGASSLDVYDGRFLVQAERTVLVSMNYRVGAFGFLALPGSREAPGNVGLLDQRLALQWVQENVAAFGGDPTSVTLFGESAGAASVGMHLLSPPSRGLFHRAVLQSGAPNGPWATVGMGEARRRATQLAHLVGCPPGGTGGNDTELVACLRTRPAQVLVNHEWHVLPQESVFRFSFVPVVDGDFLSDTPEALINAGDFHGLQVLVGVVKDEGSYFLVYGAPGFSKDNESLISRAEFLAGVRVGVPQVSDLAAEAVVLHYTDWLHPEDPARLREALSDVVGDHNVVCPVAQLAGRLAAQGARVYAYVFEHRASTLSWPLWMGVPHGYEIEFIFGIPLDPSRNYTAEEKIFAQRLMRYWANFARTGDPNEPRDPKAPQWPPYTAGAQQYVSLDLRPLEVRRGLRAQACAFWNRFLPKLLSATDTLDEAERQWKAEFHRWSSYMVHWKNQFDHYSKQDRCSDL
Chain of Albumin (P02768 whole entry): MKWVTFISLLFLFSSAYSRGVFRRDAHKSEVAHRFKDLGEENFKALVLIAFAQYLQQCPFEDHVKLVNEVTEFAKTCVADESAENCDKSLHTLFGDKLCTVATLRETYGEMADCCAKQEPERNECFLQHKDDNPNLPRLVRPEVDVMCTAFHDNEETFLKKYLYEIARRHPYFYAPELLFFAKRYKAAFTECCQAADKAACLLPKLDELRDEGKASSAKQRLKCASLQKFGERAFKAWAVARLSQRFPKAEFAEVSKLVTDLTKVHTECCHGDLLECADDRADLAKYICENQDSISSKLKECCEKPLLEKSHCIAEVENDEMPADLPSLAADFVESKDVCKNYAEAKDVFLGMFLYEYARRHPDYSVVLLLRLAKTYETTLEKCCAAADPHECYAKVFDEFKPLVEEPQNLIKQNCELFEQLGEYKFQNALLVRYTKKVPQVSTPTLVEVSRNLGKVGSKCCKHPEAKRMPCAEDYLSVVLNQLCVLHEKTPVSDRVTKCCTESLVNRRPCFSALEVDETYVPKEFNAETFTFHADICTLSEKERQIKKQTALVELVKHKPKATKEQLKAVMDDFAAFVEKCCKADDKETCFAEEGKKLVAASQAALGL
T3 sequence (P02768 whole entry): as above
Chain of Amyloid-beta precursor protein (Homo sapiens) (P05067 whole entry): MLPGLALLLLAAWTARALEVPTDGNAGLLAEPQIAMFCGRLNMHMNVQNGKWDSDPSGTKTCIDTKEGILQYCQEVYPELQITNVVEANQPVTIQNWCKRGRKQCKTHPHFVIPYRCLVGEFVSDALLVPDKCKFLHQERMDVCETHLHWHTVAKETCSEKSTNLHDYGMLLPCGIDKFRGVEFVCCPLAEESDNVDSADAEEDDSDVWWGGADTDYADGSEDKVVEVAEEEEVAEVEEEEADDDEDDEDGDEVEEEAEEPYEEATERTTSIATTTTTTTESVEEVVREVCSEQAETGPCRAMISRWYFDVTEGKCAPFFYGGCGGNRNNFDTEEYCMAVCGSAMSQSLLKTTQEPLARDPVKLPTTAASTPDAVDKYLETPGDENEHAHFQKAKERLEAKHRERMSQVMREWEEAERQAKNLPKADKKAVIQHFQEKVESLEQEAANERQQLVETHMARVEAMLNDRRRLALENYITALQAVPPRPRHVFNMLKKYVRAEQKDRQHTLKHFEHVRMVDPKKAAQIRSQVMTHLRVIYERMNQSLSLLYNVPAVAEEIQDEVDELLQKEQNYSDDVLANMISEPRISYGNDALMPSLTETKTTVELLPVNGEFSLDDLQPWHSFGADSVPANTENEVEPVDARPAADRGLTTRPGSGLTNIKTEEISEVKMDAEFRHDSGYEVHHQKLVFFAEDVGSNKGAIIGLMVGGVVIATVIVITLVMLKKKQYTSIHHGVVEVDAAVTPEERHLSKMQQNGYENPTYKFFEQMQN
T1 sequence (P81908 whole entry): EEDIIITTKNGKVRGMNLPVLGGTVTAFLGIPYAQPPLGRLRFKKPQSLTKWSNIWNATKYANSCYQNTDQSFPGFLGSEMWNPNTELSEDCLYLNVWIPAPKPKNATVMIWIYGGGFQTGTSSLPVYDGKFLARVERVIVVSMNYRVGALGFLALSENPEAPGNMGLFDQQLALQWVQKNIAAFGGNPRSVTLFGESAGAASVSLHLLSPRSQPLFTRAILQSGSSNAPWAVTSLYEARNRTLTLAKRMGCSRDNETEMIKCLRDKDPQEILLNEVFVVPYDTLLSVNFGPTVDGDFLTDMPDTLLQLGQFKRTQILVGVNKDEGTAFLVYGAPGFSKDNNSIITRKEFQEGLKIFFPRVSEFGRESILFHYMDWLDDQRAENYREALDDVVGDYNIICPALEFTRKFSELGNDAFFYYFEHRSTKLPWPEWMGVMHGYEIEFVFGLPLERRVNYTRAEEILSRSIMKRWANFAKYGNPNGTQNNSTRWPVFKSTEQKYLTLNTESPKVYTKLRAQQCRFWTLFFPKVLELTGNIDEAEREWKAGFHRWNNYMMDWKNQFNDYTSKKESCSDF
Chain of Cholinesterase (Equus caballus) (P81908 whole entry): as above

`O=C1NCCCc2c1c1ccccc1n2CCCCCN1CCN(Cc2ccccc2)CC1`: the IC50 against Acetylcholinesterase was 1830 nM; against Cholinesterase [1], 430 nM. Moreover, the inhibition in [2] was determined as 28%.

As to `O=C1NCCCc2c1c1ccccc1n2CCCCCCCN1CCN(Cc2ccncc2)CC1`, the figures for the IC50 at Acetylcholinesterase and at Cholinesterase [1] were 7060 nM and 1860 nM, respectively.

For `O=C1NCCCc2c1c1ccccc1n2CCCCCCCN1CCN(CCc2ccccc2)CC1`, the results for the IC50 on Acetylcholinesterase, on Cholinesterase [1] and against Cholinesterase [3] were 5900 nM, 65 nM and 72 nM, respectively. Further, the inhibition in [4] turned out to be 39%; in data set [2] it was 62%. For the same molecule, the inhibition result in data set [5] was “Active”. Also, the inhibition constant (Ki) at Cholinesterase [6] was found to be 27 nM. Also, in data set [7], the IC50 at 24 h is 60000 nM. Also, the result with SH-SY5Y [8] was Active. Further, the outcome with SH-SY5Y [9] and in the data set on SH-SY5Y [10] was inactive. Moreover, the selectivity ratio with equine serum BuChE was 800. In addition, in data set [11], the Activity was less than 10%. Further, the dissociation constant Kd on Albumin stood at 3530 nM; on Cholinesterase [15] it was 62 nM. For the same molecule, the koff at serum albumin [12] amounted to 0.151 s⁻¹. On serum albumin [13], the residence time is 0.1 min. The molecule also came in with a solubility at 1 h in data set [14] of 6.1 µg/mL (≈ 12.5 µM).

With `O=C1NCCCc2c1c1ccccc1n2CCCCCN1CCN(c2ccc(F)cc2)CC1`, the IC50 against Cholinesterase [1] is 1780 nM. The molecule also had an inhibition in [16] of 28%.

For the molecule `O=C1NCCCc2c1c1ccccc1n2CCCCN1CCN(CCc2ccccc2)CC1`, at Cholinesterase [1], the IC50 is 528 nM. Also, the inhibition in data set [16] came to 36%; in data set [2], 21%.

Regarding `O=C1NCCCc2c1c1ccccc1n2CCN1CCN(Cc2ccccc2)CC1`, the values for the IC50 on Acetylcholinesterase and against Cholinesterase [1] were 6570 nM and 6590 nM, respectively. Besides, the inhibition in data set [2] worked out at 13%.

`O=C1NCCCc2c1c1ccccc1n2CCCCCN1CCN(Cc2cccnc2)CC1`: the IC50 on Cholinesterase [1] came out at 4920 nM. This molecule also showed an inhibition in [16] of 37%.

As to `O=C1NCCCc2c1c1ccccc1n2CCCCCN1CCN(c2ccccc2)CC1`, the IC50 against Cholinesterase [1] is 5520 nM. Also, the inhibition in data set [16] stood at 31%.

With `O=C1NCCCc2c1c1ccccc1n2CCCCCN1CCN(CCc2ccccc2)CC1`, the IC50 on Cholinesterase [1] is 163 nM; on Cholinesterase [3], 190 nM. The figures for the inhibition in data set [16], in data set [4] and in data set [2] were 39%, 20% and 14%, respectively. For the same molecule, in the data set with SH-SY5Y [17], the EC50 was approximately 1500 nM. Further, the Activity result was “Dose-Dependent Effect” with SH-SY5Y [17] (dose 1-20 µM) and less than 10% in data set [11]. Besides, in data set [7], the IC50 at 24 h amounted to 88000 nM. Further, the outcome with SH-SY5Y [8] was Active. In addition, in the data set on SH-SY5Y [9], the outcome was inactive. Also, the selectivity ratio in the data set with equine serum BuChE was 500. In addition, the Kd on Albumin was 6700 nM; on Cholinesterase [15], 148 nM. The koff at serum albumin [12] is 0.092 s⁻¹. In addition, the residence time on serum albumin [13] was 0.183 min. In data set [14], this molecule registered a solubility at 1 h of 169 µg/mL (≈ 368 µM).

`O=C1NCCCc2c1c1ccccc1n2CCCCCCCN1CCN(Cc2cccnc2)CC1` yielded an IC50 against Cholinesterase [1] of 466 nM. The inhibition in data set [16] is 40%.

`O=C1NCCCc2c1c1ccccc1n2CCN1CCN(CCc2ccccc2)CC1` came in with an IC50 against Cholinesterase [1] of 5790 nM. Moreover, the figures for the inhibition in data set [16] and in data set [2] were 8% and 55%, respectively.

Consider `O=C1NCCCc2c1c1ccccc1n2CCCCCN1CCN(c2ccccn2)CC1`, for which the IC50 on Cholinesterase [1] was determined as 717 nM. The molecule also had an inhibition in data set [16] of 13%.

Regarding `O=C1NCCCc2c1c1ccccc1n2CCCCCCCN1CCN(Cc2ccccc2)CC1`, the concentration for half-maximal inhibition (IC50) is 402 nM on Acetylcholinesterase and 396 nM on Cholinesterase [1].

At Cholinesterase [1], `O=C1NCCCc2c1c1ccccc1n2CCCCCCCN1CCN(c2ccc(F)cc2)CC1` had an IC50 of 10000 nM. In addition, the inhibition in data set [16] came out at 10%.

For the molecule `O=C1NCCCc2c1c1ccccc1n2CCCCCN1CCN(c2ccccc2F)CC1`, the IC50 against Cholinesterase [1] stood at 1000 nM. This molecule also came in with an inhibition in [16] of 35%.

On to `O=C1NCCCc2c1c1ccccc1n2CCCCN1CCN(Cc2ccccc2)CC1`, for which the IC50 against Acetylcholinesterase was 1480 nM; on Cholinesterase [1] it was 2640 nM.

In the case of `CC(C)NCCCn1c2c(c3ccccc31)C(=O)NCCC2`, the inhibition in data set [18] is 50%; in data set [19], less than 40%; against Cholinesterase [20] it was less than 40%.

On to `CN1CCN(CCCCCn2c3c(c4ccccc42)C(=O)NCCC3)CC1`, for which the inhibition in data set [16] and in data set [21] was 20% in each case.

Regarding `O=C1NCCCc2c1c1ccccc1n2CCCCCCCN1CCN(c2ccccn2)CC1`, the IC50 against Acetylcholinesterase was 9100 nM; against Cholinesterase [1] it was 2100 nM.

Turning to `O=C1NCCCc2c1c1ccccc1n2CCCCCCCN1CCN(c2ccccc2F)CC1`, the IC50 against Acetylcholinesterase worked out at 4940 nM; at Cholinesterase [1], 906 nM.

With `O=C1NCCCc2c1c1ccccc1n2CCc1ccccc1`, the inhibition in data set [18] is less than 40%. Further, on Albumin, the Kd is 850 nM. Besides, the koff at serum albumin [12] worked out at 0.017 s⁻¹. In addition, at serum albumin [13], the residence time is 1 min.

`O=C1NCCCc2c1c1ccccc1n2CCCCCCCN1CCN(c2ccccc2)CC1` yielded an IC50 against Cholinesterase [1] of 765 nM. In addition, the inhibition in [16] was found to be 17%. For the same molecule, the figures for the Kd on Albumin and at Cholinesterase [15] were 1640 nM and 759 nM, respectively. In addition, the koff on serum albumin [12] was determined as 0.069 s⁻¹. Further, at serum albumin [13], the residence time was 0.25 min.

For the molecule `CN1CCN(CCCCCCCn2c3c(c4ccccc42)C(=O)NCCC3)CC1`, the IC50 amounted to 15000 nM against Acetylcholinesterase and 10000 nM on Cholinesterase [1].

On to `O=C1NCCCc2c1c1ccccc1n2CCCCCN1CCN(Cc2ccncc2)CC1`, for which, at Cholinesterase [1], the IC50 stood at 1920 nM. This molecule returned an inhibition in [16] of 2%.

As to `O=c1c(O)c(-c2ccc(O)c(O)c2)oc2cc(O)cc(O)c12`, in the data set with SH-SY5Y [22], the outcome was Active.

By IC50 is commonly meant the concentration that gives 50% inhibition. The inhibition is the drop in the measured response relative to a control, in per cent. As usually defined, the Ki is a dissociation constant, usually derived from enzyme kinetics or from competition with a known ligand. The Kd is the concentration at which binding is half-saturated. In general, residence time refers to how long the partners stay bound on average. As a reminder, the solubility is how much of the substance goes into solution per volume. A low value points to a poorly soluble substance. The term EC50 denotes the concentration that produces a half-maximal response.
